Data published in patent US20220280423A1, “GLYMPHATIC DELIVERY BY MANIPULATING PLASMA OSMOLARITY” (University of Rochester, priority 2018, published 2022).

What was measured:
[1] = tested on: BBB; assay: Assessment of BBB permeability (FITC-dextran extravasation); format: in vivo, C57BL/6 mice; conditions: anesthetized mice, 30 min after i.p. injection
Method: Assessment of BBB Permeability. For quantification of BBB disruption, a 1% solution of FITC-conjugated dextran (70 kDa; Sigma-Aldrich) in normal saline (4 mL/kg of body weight) was injected via the femoral vein. The dextran was allowed to circulate for 30 min following plasma tonicity manipulations, at which point a plasma sample was taken and the mice were perfusion-fixed as described below. Positive controls received a 2M mannitol infusion via a catheter in the right external carotid artery (0.64 mL/min for 30 seconds) 5 minutes after the dextran. The brains were harvested, sectioned, and FITC extravasation was imaged and quantified (see below). Plasma concentration of the FITC dextran was calculated by diluting the plasma samples 1:4 with PBS and analyzing them in triplicate on a fluorescence microplate reader (SpectraMax M2, Molecular Devices) at 458 nm excitation, 538 nm emission, with a cutoff above 530 nm at room temperature (24° C.). Dextran concentration was estimated by comparing the relative fluorescence of the samples against a standard curve (0.0-1.0 mg/mL, 0.1 mg/mL steps; FITC-dextran 70 kDa in PBS) fitted with a linear regression. Blood samples with hemolysis were excluded from analysis due to interference with spectrophotometric absorbance readings.
Image Analysis. All images were analyzed using ImageJ software (National Institutes of Health, imagej.nih.gov/ij/) (60). […]

[2] = Intracranial pressure, arterial blood pressure and laser Doppler cerebral blood flow; format: in vivo, C57BL/6 mice
From the text: Intracranial and Arterial Blood Pressure Measurements. A separate group of animals were anesthetized with a mixture of ketamine/xylazine. Afterwards, a 30 G needle connected to rigid polyethylene tubing filled with aCSF was inserted into the cisterna magna as described above and an arterial catheter was placed in the femoral artery. The lines were connected to a pressure transducer and monitor (World Precision Instruments). Recordings were allowed to stabilize, and then recorded continuously for 35 min (5 min baseline and 30 min after i.p. injection). The signals were digitized and recorded with a DigiData 1440A digitizer and AxoScope software (Axon Instruments). The intracranial and mean arterial pressure recordings were processed and analyzed using MATLAB (MathWorks).
Laser Doppler Flowmetry. Relative changes in cerebral blood flow (rCBF) were measured using laser Doppler flowmetry (PF5010 Laser Doppler Perfusion Module with microtips, PR 418-1, Perimed). The tip of the fiber optic probe was fixed directly onto the exposed skull with cyanoacrylate glue. Signals were collected using a 1440A digitizer and AxoScope software (Axon Instruments). For each mouse, rCBF was recorded both 5 minutes before and 30 minutes after the administration of i.p. solutions. The rCBF recordings were processed and analyzed using MATLAB (MathWorks).
Consequently, assays were carried out to determine if tonicity-induced changes in one of these parameters might be responsible for the observed enhancement of glymphatic CSF influx. […] This net negative ICP resulted from the outflow of ISF across the BBB (FIG. 15D), and likely provided the necessary driving force to increase CSF influx to cerebral tissues. Importantly. this transfer of brain water to the vascular column occurred across an intact BBB (FIGS. 12A-C).

[3] = tested on: glymphatic CSF influx; assay: Transcranial macroscopic imaging of CSF tracer (BSA-647) influx, plasma hypertonicity in KX-anesthetized mice; format: in vivo, C57BL/6 mice
Method: Intracisternal injections. Mice in the KX groups were weighed and anesthetized with a mixture of ketamine (100 mg/kg, i.p.) and xylazine (10 mg/kg, i.p.). Afterwards, animals were fixed in a stereotaxic frame, and the cisterna magna was surgically exposed with the help of a stereomicroscope. The cisternal space was cannulated using a 30 G needle attached via polyethylene tubing to a Hamilton syringe. The needle was secured with cyanoacrylate glue and tracers were infused with a syringe pump (Harvard Apparatus) depending on the experimental paradigm (see below). Mice randomized to the awake group were anesthetized with 2% isoflurane, their skull cemented to a customized head plate, placed in a restraint tube, and then underwent the same surgical procedure as described above. Tracers were allowed to circulate for 30 min after the injection start time and the needle left in place for the duration of the experiment to prevent the CSF compartment from depressurizing. Core temperature (37° C.) and anesthetic depth were maintained throughout the experiment. At the end of 30 min, animals were decapitated, and the brain processed for either fluorescent or radioisotope tracer analysis.
CSF Tracers. AlexaFluor647-conjugated bovine serum albumin (BSA-647, 66 kDa, Invitrogen) was constituted in artificial CSF (0.5% m/v) and used as a fluorescent CSF tracer. […] Fluorescent tracers and antibodies were infused in a total volume of 10 μl at a rate of 2 μl/min or 1 μl/min into the cisterna magna.
Transcranial In vivo Macroscopic Imaging. For in vivo imaging, the skin covering the dorsal calvarium was incised and reflected laterally prior to cannulating the cisterna magna. The entry of CSF tracers into the brain was imaged by fluorescence macroscopy (MVX10, Olympus) using a PRIOR Lumen 1600-LED light source and Flash 4.0 digital camera (Hamamatsu). The mouse fixed on the stereotaxic frame was placed on the microscope stage and images at 20× magnification were acquired in the far-red emission channel (647 nm). Images (2048×2048 pixel; 5.7120 μm/pixel) were collected at 1 min intervals for 0-30 min following injection commencement using the MetaMorph Basic imaging software (Molecular Devices). Exposure time was held constant throughout the duration of the imaging sequence and across experimental groups.
Front tracking. To quantify the area and speed of fluorescent CSF tracer influx in the brain, inventors employed an algorithm recently developed in the context of advection-reaction-diffusion (56). Given a time series of a two-dimensional concentration field, this algorithm tracked the location of the “front” which separates low-concentration and high-concentration regions. The algorithm outputs spatially- and temporally-resolved velocity measurements quantifying the front propagation. Influx speed was calculated by averaging over the entire group data to obtain mean front speed measurements for each group. The propagation front was identified using a threshold of 175 (on an 8-bit scale of 0 to 255); however, it was noted that the results were fairly robust to different threshold choices. This same threshold was used for all-time series of images, which was justified since care was taken to maintain similar imaging conditions across all experiments. A fixed threshold preserved the physical meaning of the front and allowed for quantitative comparison between populations from different experiments.
Solutions. Control mice received isosmotic saline (0.34M NaCl in ddH2O; 20 μL/g, i.p.).

[4] = tested on: glymphatic CSF influx; assay: Transcranial macroscopic imaging of CSF tracer (BSA-647) influx, plasma hypertonicity in awake mice; format: in vivo, C57BL/6 mice
Method: Intracisternal injections. Mice in the KX groups were weighed and anesthetized with a mixture of ketamine (100 mg/kg, i.p.) and xylazine (10 mg/kg, i.p.). Afterwards, animals were fixed in a stereotaxic frame, and the cisterna magna was surgically exposed with the help of a stereomicroscope. The cisternal space was cannulated using a 30 G needle attached via polyethylene tubing to a Hamilton syringe. The needle was secured with cyanoacrylate glue and tracers were infused with a syringe pump (Harvard Apparatus) depending on the experimental paradigm (see below). […]
Transcranial In vivo Macroscopic Imaging. […] The entry of CSF tracers into the brain was imaged by fluorescence macroscopy (MVX10, Olympus) using a PRIOR Lumen 1600-LED light source and Flash 4.0 digital camera (Hamamatsu). […]
Front tracking. To quantify the area and speed of fluorescent CSF tracer influx in the brain, inventors employed an algorithm recently developed in the context of advection-reaction-diffusion (56). […] The algorithm outputs spatially- and temporally-resolved velocity measurements quantifying the front propagation. Influx speed was calculated by averaging over the entire group data to obtain mean front speed measurements for each group. […] A fixed threshold preserved the physical meaning of the front and allowed for quantitative comparison between populations from different experiments. […]

[5] = Plasma osmolality after intraperitoneal injection; format: in vivo, C57BL/6 mice; conditions: i.p., KX-anesthetized mice, lasting 30 minutes
Method: Solutions. Control mice received isosmotic saline ([…]; 20 μL/g, i.p.). Hyperosmolality was induced either with mannitol (1M in 0.34M NaCl; 30 μL/g, i.p.) or hypertonic saline (1M NaCl in ddH2O; 20 μL/g, i.p.). Thirty minutes after intraperitoneal injection, a plasma sample was taken, and the mouse decapitated. Plasma osmolality was measured in triplicate using a micro-osmometer (Advanced Instruments).

[6] = Radioisotope influx (brain uptake of CSF-delivered tracers); conditions: 30 min
Method: Fluorescent tracers and antibodies were infused in a total volume of 10 μl at a rate of 2 μl/min or 1 μl/min into the cisterna magna. Radioisotope tracers were infused in a total volume of 5 μl at 1 μl/min.
Radioisotope Influx. […] After 30 min, animals were rapidly decapitated, the skull and dura removed, and the brain harvested. Brain radioactivity was normalized to the total radioactivity detected in a 5 μL aliquot put directly into a scintillation vial immediately before intracisternal injection. All brain tissue was weighed and solubilized in 0.5 mL tissue solubilizer (Solvable, PerkinElmer) overnight. Upon solubilization, 5 mL of scintillation cocktail was added (Ultima Gold, PerkinElmer). The injectate controls were treated in the same way as the tissue samples. All samples were analyzed by liquid scintillation spectrometry using a scintillation counter (LS 6500 Multipurpose Scintillation Counter, Beckman Coulter). The radioactivity (disintegrations per minute: dpm) remaining in the brain after injection (percent of injected dose: %ID) was determined as
where Rb is the radioactivity remaining in the brain at the end of the experiment and Ri is the radioactivity in the injectate controls for each experiment. Influx percentage was deduced as % ID. […]

| Molecule | BBB permeability [1] | relative cerebral blood flow (rCBF) ([2]; 30-min recording after i.p.) | ICP relative to the isotonic controls ([2]; 30 min after i.p.) | mean arterial blood pressure (MAP) ([2]; anesthetized mice, i.p.) | reduction of the time to delivery of CSF tracer ([3]; KX-anesthetized mice, i.p.) | dorsal cortical surface covered by CSF tracer ([3]; KX-anesthetized mice, i.p., 30 min imaging) | increase in the influx area of CSF tracer ([3]; KX-anesthetized mice, i.p., vs isotonic controls) | penetration of an intracisternally-delivered CSF tracer ([3]; intraperitoneal) | increase of influx speeds of CSF tracer ([3]; intraperitoneal, intracisternally-delivered CSF tracer) | tracer influx rates across the entire dorsal cortex, faster than isotonic [4] | increase in tracer influx area ([4]; at 30 min) | plasma osmolality [5] | increase in the fractional tracer uptake to brain ([6]; plasma hyperosmolality (HTS or mannitol i.p.) vs isotonic) | total injected tracer delivered to the brain parenchyma ([6]; plasma hyperosmolality (HTS or mannitol i.p.)) |
| --- | --- | --- | --- | --- | --- | --- | --- | --- | --- | --- | --- | --- | --- | --- |
| OC[C@@H](O)[C@@H](O)[C@H](O)[C@H](O)CO [mannitol] | no significant increase | slight reduction | significantly and consistently declined | reduced | roughly half | approximately 60% | five-fold | doubled | about 70% | roughly 1.5 fold | circa 20 fold | significantly elevated |  |  |
| ^14C-inulin |  |  |  |  |  |  |  |  |  |  |  |  | roughly 125% | approximately 40% |
